Assay: Biodistribution of the nano-emulsion of Example 1.1 (radioactivity and fluorescence per organ)
Format: in vivo
Experimental: In the following examples, the radioactivity was counted with the TRiCarb Counter (Ref: Packard, Liquid Scintillation Analyzers; Models 2200CA).
Fluobeam 700 (Fluoptics) is the apparatus with which the whole of the organs from the biodistribution were analyzed in fluorescence as well as the one with which the biodistribution kinetics of the nano-emulsions were established in vivo. This imaging system allows viewing of the fluorescence in spectral bands from 700 to 850 nm for a 650 nm excitation. The apparatus consists of an electric case containing the laser of class 3B, its power supply and an optical head containing the CCD camera.
The nano-emulsions of Example 1 were injected into FVB female and male mice. As a comparison, a mixture of three tracers ([3H]CHE, [14C]CO and DiD) (not formulated as a nano-emulsion) was injected in order to observe the distribution of the tracers in the absence of droplets being used as a distribution carrier.
Tables 6 to 14 provide the biodistribution results of each tracer ([3H]CHE, [14C]CO and DiD) expressed as a percentage of the dose injected per gram of tissue (or [3H]CHE and [14C]CO) or as fluorescence intensity (for DiD) depending on the organ of the mouse, 15 minutes (Table 6), 2 hours (Table 7), 4 hours (Table 8), 6 hours (Table 9), 16 hours (Table 10), 24 hours (Table 11), 72 hours (Table 12), 120 hours (Table 13) and 168 hours (Table 14), after injection into an FVB female mouse of the nano-emulsion of Example 1.1. (nano-emulsion according to the invention comprising the three tracers ([3H]CHE, [14C]CO and DiD).

[1] = 15 min after injection of nano-emulsion of Example 1.1, FVB female mouse
[2] = 2 h after injection of nano-emulsion of Example 1.1, FVB female mouse
[3] = 4 h after injection of nano-emulsion of Example 1.1, FVB female mouse
[4] = 16 h (Table 9 head) after injection of nano-emulsion of Example 1.1, FVB female mouse
[5] = 24 h (Table 10 head) after injection of nano-emulsion of Example 1.1, FVB female mouse
[6] = 48 h (Table 11 head) after injection of nano-emulsion of Example 1.1, FVB female mouse

- biodistribution, Adrenal glands (MEAN) [1]: 10.18 % of injected dose per gram of
- biodistribution, Brain (MEAN) [1]: 0.499 % of injected dose per gram of
- biodistribution, Fat (MEAN) [1]: 1.15 % of injected dose per gram of
- biodistribution, Heart (MEAN) [1]: 8.676 % of injected dose per gram of
- biodistribution, Intestine (MEAN) [1]: 1.75 % of injected dose per gram of
- biodistribution, Kidney (MEAN) [1]: 4.20 % of injected dose per gram of
- biodistribution, Liver (MEAN) [1]: 8.86 % of injected dose per gram of
- biodistribution, Lung (MEAN) [1]: 3.92 % of injected dose per gram of
- biodistribution, Muscle (MEAN) [1]: 0.744 % of injected dose per gram of
- biodistribution, Ovary (MEAN) [1]: 4.59 % of injected dose per gram of
- biodistribution, Pancreas (MEAN) [1]: 1.262 % of injected dose per gram of
- biodistribution, Salivary glands (MEAN) [1]: 1.057 % of injected dose per gram of
- biodistribution, Spleen (MEAN) [1]: 3.58 % of injected dose per gram of
- biodistribution, Uterus (MEAN) [1]: 0.93 % of injected dose per gram of
- biodistribution, Adrenal glands (MEAN) [2]: 18.50 % of injected dose per gram of
- biodistribution, Brain (MEAN) [2]: 0.29 % of injected dose per gram of
- biodistribution, Fat (MEAN) [2]: 3.85 % of injected dose per gram of
- biodistribution, Heart (MEAN) [2]: 4.41 % of injected dose per gram of
- biodistribution, Intestine (MEAN) [2]: 2.33 % of injected dose per gram of
- biodistribution, Kidneys (MEAN) [2]: 3.91 % of injected dose per gram of
- biodistribution, Liver (MEAN) [2]: 19.41 % of injected dose per gram of
- biodistribution, Lung (MEAN) [2]: 4.42 % of injected dose per gram of
- biodistribution, Muscle (MEAN) [2]: 0.48 % of injected dose per gram of
- biodistribution, Ovary (MEAN) [2]: 22.72 % of injected dose per gram of
- biodistribution, Pancreas (MEAN) [2]: 1.68 % of injected dose per gram of
- biodistribution, Salivary glands (MEAN) [2]: 1.74 % of injected dose per gram of
- biodistribution, Spleen (MEAN) [2]: 2.87 % of injected dose per gram of
- biodistribution, Uterus (MEAN) [2]: 2.21 % of injected dose per gram of
- biodistribution, Adrenal glands (MEAN) [3]: 21.37 % of injected dose per gram of
- biodistribution, Brain (MEAN) [3]: 0.23 % of injected dose per gram of
- biodistribution, Fat (MEAN) [3]: 1.46 % of injected dose per gram of
- biodistribution, Heart (MEAN) [3]: 3.75 % of injected dose per gram of
- biodistribution, Intestine (MEAN) [3]: 1.80 % of injected dose per gram of
- biodistribution, Kidney (MEAN) [3]: 2.27 % of injected dose per gram of
- biodistribution, Liver (MEAN) [3]: 13.69 % of injected dose per gram of
- biodistribution, Lungs (MEAN) [3]: 3.09 % of injected dose per gram of
- biodistribution, Muscle (MEAN) [3]: 0.38 % of injected dose per gram of
- biodistribution, Ovary (MEAN) [3]: 25.14 % of injected dose per gram of
- biodistribution, Pancreas (MEAN) [3]: 1.17 % of injected dose per gram of
- biodistribution, Salivary glands (MEAN) [3]: 1.47 % of injected dose per gram of
- biodistribution, Spleen (MEAN) [3]: 1.97 % of injected dose per gram of
- biodistribution, Uterus (MEAN) [3]: 1.39 % of injected dose per gram of
- biodistribution, Adrenal glands (MEAN) [4]: 30.64 % of injected dose per gram of
- biodistribution, Brain (MEAN) [4]: 0.13 % of injected dose per gram of
- biodistribution, Fat (MEAN) [4]: 8.06 % of injected dose per gram of
- biodistribution, Heart (MEAN) [4]: 2.00 % of injected dose per gram of
- biodistribution, Intestine (MEAN) [4]: 2.53 % of injected dose per gram of
- biodistribution, Kidney (MEAN) [4]: 1.75 % of injected dose per gram of
- biodistribution, Liver (MEAN) [4]: 8.68 % of injected dose per gram of
- biodistribution, Lungs (MEAN) [4]: 2.80 % of injected dose per gram of
- biodistribution, Muscle (MEAN) [4]: 1.59 % of injected dose per gram of
- biodistribution, Ovary (MEAN) [4]: 21.45 % of injected dose per gram of
- biodistribution, Pancreas (MEAN) [4]: 1.19 % of injected dose per gram of
- biodistribution, Salivary glands (MEAN) [4]: 2.02 % of injected dose per gram of
- biodistribution, Spleen (MEAN) [4]: 1.89 % of injected dose per gram of
- biodistribution, Uterus (MEAN) [4]: 2.76 % of injected dose per gram of
- biodistribution, Adrenal glands (MEAN) [5]: 13.05 % of injected dose per gram of
- biodistribution, Brain (MEAN) [5]: 0.11 % of injected dose per gram of
- biodistribution, Fat (MEAN) [5]: 2.28 % of injected dose per gram of
- biodistribution, Heart (MEAN) [5]: 1.31 % of injected dose per gram of
- biodistribution, Intestine (MEAN) [5]: 1.22 % of injected dose per gram of
- biodistribution, Kidney (MEAN) [5]: 1.03 % of injected dose per gram of
- biodistribution, Liver (MEAN) [5]: 5.39 % of injected dose per gram of
- biodistribution, Lung (MEAN) [5]: 1.30 % of injected dose per gram of
- biodistribution, Muscle (MEAN) [5]: 1.01 % of injected dose per gram of
- biodistribution, Ovary (MEAN) [5]: 9.58 % of injected dose per gram of
- biodistribution, Pancreas (MEAN) [5]: 0.67 % of injected dose per gram of
- biodistribution, Salivary glands (MEAN) [5]: 1.76 % of injected dose per gram of
- biodistribution, Spleen (MEAN) [5]: 1.10 % of injected dose per gram of
- biodistribution, Uterus (MEAN) [5]: 0.96 % of injected dose per gram of
- biodistribution, Adrenal glands (MEAN) [6]: 10.83 % of injected dose per gram of
- biodistribution, Brain (MEAN) [6]: 0.11 % of injected dose per gram of
- biodistribution, Fat (MEAN) [6]: 3.46 % of injected dose per gram of
- biodistribution, Heart (MEAN) [6]: 0.87 % of injected dose per gram of
- biodistribution, Intestine (MEAN) [6]: 1.01 % of injected dose per gram of
- biodistribution, Kidney (MEAN) [6]: 0.77 % of injected dose per gram of
- biodistribution, Liver (MEAN) [6]: 1.53 % of injected dose per gram of
- biodistribution, Lungs (MEAN) [6]: 1.28 % of injected dose per gram of
Structure (SMILES): CCCCCCCC/C=C\CCCCCCC[14C](=O)O[C@H]1CC[C@@]2(C)C(=CC[C@H]3[C@@H]4CC[C@H]([C@H](C)CCCC(C)C)[C@@]4(C)CC[C@@H]32)C1 [[14C]CO, cholesteryl oleate]
